{"source": "patent US20180185347A1", "about": "“TETRAHYDROCYCLOPENTA[B]INDOLE COMPOUNDS AND PHOSPHODIESTERASE INHIBITORS FOR THE TREATMENT OF THE SIGNS AND SYMPTOMS OF BHP” (Transition Therapeutics (Ireland 2) Limited, priority 2016, published 2018)", "key": {"[1]": {"target": "T1, human androgen receptor (hAR) (Homo sapiens, UniProt P10275)", "T1 sequence (P10275 1-920)": "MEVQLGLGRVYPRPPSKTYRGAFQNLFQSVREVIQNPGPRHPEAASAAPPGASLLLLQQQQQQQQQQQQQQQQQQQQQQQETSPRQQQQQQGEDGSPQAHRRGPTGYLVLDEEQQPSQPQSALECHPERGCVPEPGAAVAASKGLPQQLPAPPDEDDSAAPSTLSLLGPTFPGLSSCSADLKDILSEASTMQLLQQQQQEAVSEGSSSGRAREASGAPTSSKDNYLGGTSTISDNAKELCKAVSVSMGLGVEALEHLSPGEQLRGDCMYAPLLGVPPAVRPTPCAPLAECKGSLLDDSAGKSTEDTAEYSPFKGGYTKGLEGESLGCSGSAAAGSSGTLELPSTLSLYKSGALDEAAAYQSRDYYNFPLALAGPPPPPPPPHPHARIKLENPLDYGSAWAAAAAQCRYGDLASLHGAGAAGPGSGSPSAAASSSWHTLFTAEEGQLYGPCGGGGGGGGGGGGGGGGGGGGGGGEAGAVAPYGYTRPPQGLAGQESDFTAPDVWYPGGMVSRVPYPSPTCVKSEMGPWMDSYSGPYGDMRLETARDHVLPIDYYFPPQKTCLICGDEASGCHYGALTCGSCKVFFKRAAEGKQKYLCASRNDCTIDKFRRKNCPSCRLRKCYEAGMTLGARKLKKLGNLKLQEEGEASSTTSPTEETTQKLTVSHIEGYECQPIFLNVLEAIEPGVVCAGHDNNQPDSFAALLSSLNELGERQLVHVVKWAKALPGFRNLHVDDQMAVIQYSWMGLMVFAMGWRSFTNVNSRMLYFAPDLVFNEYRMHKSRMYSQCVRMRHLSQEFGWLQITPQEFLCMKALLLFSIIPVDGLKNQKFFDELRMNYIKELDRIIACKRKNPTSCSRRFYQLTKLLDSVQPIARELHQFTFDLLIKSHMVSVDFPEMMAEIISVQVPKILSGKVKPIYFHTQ", "experiment": "AR binding affinity (Ki)"}, "[2]": {"experiment": "Study GPBA single oral dose pharmacokinetics", "details": "human, in vivo, healthy subjects; for Cmax: geometric mean; for Tmax: median"}, "[3]": {"experiment": "Clinical safety and laboratory parameters", "details": "for hemoglobin and hematocrit: any dose tested, 12 weeks"}, "dogs": {"tested_on": "dogs", "experiment": "Dog toxicology program: prostate weight and atrophy", "format": "in vivo", "design": "key to Prostate weight (mean % decrease): “”: no effect observed", "details": "for Prostate weight (mean % decrease): dog"}, "PSA levels": {"tested_on": "PSA levels", "experiment": "PSA in healthy subjects (Study GPBC, Phase 1)", "format": "in vivo, human", "text": "The results of this study are illustrated in FIG. 6."}}, "data": [{"smiles": "CC(C)OC(=O)N[C@H]1Cc2c(n(Cc3ccccn3)c3ccc(C#N)cc23)C1", "note": "[compound of Formula II, (S)-(7-cyano-4-pyridin-2-ylmethyl-1,2,3,4-tetrahydro-cyclopenta[b]indol-2-yl)-carbamic acid isopropyl ester]", "values": [{"measurement": "binding affinity for hAR compared to other nuclear hormone receptors", "setting": "[1]", "result": "> 500", "unit": "fold"}, {"measurement": "Cmax", "setting": "[2]; single oral dose 5 mg", "result": 25.9, "unit": "ng/mL"}, {"measurement": "Tmax", "setting": "[2]; single oral dose 5 mg", "result": 5, "unit": "h"}, {"measurement": "Cmax", "setting": "[2]; single oral dose 25 mg", "result": 123, "unit": "ng/mL"}, {"measurement": "Tmax", "setting": "[2]; single oral dose 25 mg", "result": 4, "unit": "h"}, {"measurement": "Cmax", "setting": "[2]; single oral dose 250 mg", "result": 589, "unit": "ng/mL"}, {"measurement": "Tmax", "setting": "[2]; single oral dose 250 mg", "result": 5, "unit": "h"}, {"measurement": "Cmax", "setting": "[2]; single oral dose 500 mg", "result": 817, "unit": "ng/mL"}, {"measurement": "Tmax", "setting": "[2]; single oral dose 500 mg", "result": 4, "unit": "h"}, {"measurement": "Cmax", "setting": "[2]; single oral dose 1000 mg", "result": 910, "unit": "ng/mL"}, {"measurement": "Tmax", "setting": "[2]; single oral dose 1000 mg", "result": 4.5, "unit": "h"}, {"measurement": "HDL cholesterol levels and apolipoprotein A1", "setting": "[3]; Study GPEC", "result": "decreased"}, {"measurement": "testosterone", "setting": "[3]; Study GPEC, 12-week, elderly men, with reduction of SHBG", "result": "clinically meaningful decrease"}, {"measurement": "systolic blood pressure, diastolic blood pressure, or heart rate", "setting": "[3]; clinical studies", "result": "did not yield any significant changes"}, {"measurement": "decrease in the levels of endogenous testosterone", "setting": "[3]; clinical studies in patients with androgen deficiency", "result": "20-30%"}, {"measurement": "total bilirubin, GGT, or alkaline phosphatase", "setting": "[3]; clinical studies, any dose", "result": "no significant increases"}, {"measurement": "hemoglobin and hematocrit", "setting": "[3]; clinical", "result": "no increases"}, {"measurement": "hemoglobin and hematocrit", "setting": "[3]; clinical, listed as TT701", "result": "no change in Hematocrit"}, {"measurement": "immunotoxicity safety signal", "setting": "[3]; clinical, to date", "result": "no immunotoxicity safety signal has been observed"}, {"measurement": "dose demonstrated safe in clinical studies", "setting": "[3]; human, in vivo", "result": "up to 1000 mgs/day"}, {"measurement": "decrease in HDL", "setting": "[3]; patients, 5 mg for 12 weeks", "result": 20, "unit": "%"}, {"measurement": "liver transaminases (AST or ALT)", "setting": "[3]; phase 2 study, three subjects, two ≥2×ULN, one ≥3×ULN", "result": "transient abnormal AST or ALT"}, {"measurement": "Prostate weight (mean % decrease)", "setting": "dogs; 1+ months, 3 mg/kg/day", "result": "“”"}, {"measurement": "Prostate weight (mean % decrease)", "setting": "dogs; 1+ months, 30 mg/kg/day", "result": "“”"}, {"measurement": "Prostate weight (mean % decrease)", "setting": "dogs; 1+ months, 150 mg/kg/day", "result": "“”"}, {"measurement": "Prostate weight (mean % decrease)", "setting": "dogs; 6+ months, 3 mg/kg/day", "result": "^↓63%"}, {"measurement": "Prostate weight (mean % decrease)", "setting": "dogs; 6+ months, 30 mg/kg/day", "result": "^↓66%"}, {"measurement": "Prostate weight (mean % decrease)", "setting": "dogs; 6+ months, 150 mg/kg/day", "result": "^↓75%"}, {"measurement": "Prostate weight (mean % decrease)", "setting": "dogs; 12 months, 3 mg/kg/day", "result": "^↓60%"}, {"measurement": "Prostate weight (mean % decrease)", "setting": "dogs; 12 months, 10 mg/kg/day", "result": "^↓62%"}, {"measurement": "Prostate weight (mean % decrease)", "setting": "dogs; 12 months, 100 mg/kg/day", "result": "^↓80%"}, {"measurement": "decreases in prostate weight", "setting": "dogs; dogs, by 3 months (so in the source)", "result": "60-75%"}, {"measurement": "decrease in prostate size", "setting": "dogs; normal dogs, six-month treatment period", "result": 60, "unit": "%"}, {"measurement": "PSA test, effect on the prostate", "setting": "PSA levels; Study GPBC, healthy subjects, 1 mg to 75 mg daily for 28 days", "result": "neutral to negative effect (decreasing PSA)"}, {"measurement": "PSA", "setting": "PSA levels; clinical studies, any dose level (up to 75 mg doses)", "result": "No increases in PSA were observed"}]}]}
